The source made the active and inactive calls. The calls are words filed in the database; no cut-off is given here.
Assays:
HepaRG [1] = assay: Hepatotoxicity in human HepaRG cells assessed as GSH depletion at 500 uM measured over 12 hrs by ThiolTracker Violet dye-based fluorescence assay; type: toxicity, cell-based
Cytochrome P450 2D6 = Cytochrome P450 2D6 (Homo sapiens, UniProt P10635); assay: Inhibition of human CYP2D6 expressed in baculosomes at 1 uM using MOBFC as substrate preincubated for 20 mins followed by substrate and NADP+ addition and measured after 30 mins by fluorescence assay; type: ADME; conditions: recombinant enzyme, 0.5 h
Cytochrome P450 2D6, sequence (P10635 whole entry): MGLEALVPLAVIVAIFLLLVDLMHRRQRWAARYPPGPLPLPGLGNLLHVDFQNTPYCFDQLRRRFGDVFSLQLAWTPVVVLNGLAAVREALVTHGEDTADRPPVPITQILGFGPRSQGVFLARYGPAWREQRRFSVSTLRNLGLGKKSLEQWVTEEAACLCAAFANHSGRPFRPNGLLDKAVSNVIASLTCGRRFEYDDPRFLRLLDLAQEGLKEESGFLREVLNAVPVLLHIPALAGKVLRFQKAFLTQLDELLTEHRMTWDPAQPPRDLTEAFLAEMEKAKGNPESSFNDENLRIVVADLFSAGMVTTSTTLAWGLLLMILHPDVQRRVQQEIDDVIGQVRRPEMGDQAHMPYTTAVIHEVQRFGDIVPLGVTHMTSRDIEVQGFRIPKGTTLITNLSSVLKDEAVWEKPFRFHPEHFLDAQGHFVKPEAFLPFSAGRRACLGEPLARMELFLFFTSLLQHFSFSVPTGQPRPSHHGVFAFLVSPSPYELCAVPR

Cytochrome P450 2E1 = Cytochrome P450 2E1 (Homo sapiens, UniProt P05181); assay: Inhibition of human CYP2E1 expressed in baculosomes at 1 uM using EOMCC as substrate preincubated for 20 mins followed by substrate and NADP+ addition and measured after 30 mins by fluorescence assay; type: ADME; conditions: recombinant enzyme, 0.5 h
Cytochrome P450 2E1, sequence (P05181 whole entry): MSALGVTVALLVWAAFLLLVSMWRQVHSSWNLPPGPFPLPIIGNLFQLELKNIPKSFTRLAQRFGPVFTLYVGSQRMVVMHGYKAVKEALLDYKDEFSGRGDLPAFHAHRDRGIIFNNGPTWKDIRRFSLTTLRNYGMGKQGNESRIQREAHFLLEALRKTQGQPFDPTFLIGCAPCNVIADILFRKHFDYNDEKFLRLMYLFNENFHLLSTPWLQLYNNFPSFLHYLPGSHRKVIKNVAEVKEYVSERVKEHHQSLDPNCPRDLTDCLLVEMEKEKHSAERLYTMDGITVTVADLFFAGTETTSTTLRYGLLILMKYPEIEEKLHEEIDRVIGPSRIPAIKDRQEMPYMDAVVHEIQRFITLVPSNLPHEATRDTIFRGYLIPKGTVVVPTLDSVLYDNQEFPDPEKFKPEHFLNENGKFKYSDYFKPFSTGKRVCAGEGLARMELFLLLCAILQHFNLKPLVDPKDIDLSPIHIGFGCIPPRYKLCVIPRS

Cytochrome P450 3A4 = Cytochrome P450 3A4 (Homo sapiens, UniProt P08684); assay: Inhibition of human CYP3A4 expressed in baculosomes at 1 uM using BOMCC as substrate preincubated for 20 mins followed by substrate and NADP+ addition and measured after 30 mins by fluorescence assay; type: ADME; conditions: recombinant enzyme, 0.5 h
Cytochrome P450 3A4, sequence (P08684 whole entry): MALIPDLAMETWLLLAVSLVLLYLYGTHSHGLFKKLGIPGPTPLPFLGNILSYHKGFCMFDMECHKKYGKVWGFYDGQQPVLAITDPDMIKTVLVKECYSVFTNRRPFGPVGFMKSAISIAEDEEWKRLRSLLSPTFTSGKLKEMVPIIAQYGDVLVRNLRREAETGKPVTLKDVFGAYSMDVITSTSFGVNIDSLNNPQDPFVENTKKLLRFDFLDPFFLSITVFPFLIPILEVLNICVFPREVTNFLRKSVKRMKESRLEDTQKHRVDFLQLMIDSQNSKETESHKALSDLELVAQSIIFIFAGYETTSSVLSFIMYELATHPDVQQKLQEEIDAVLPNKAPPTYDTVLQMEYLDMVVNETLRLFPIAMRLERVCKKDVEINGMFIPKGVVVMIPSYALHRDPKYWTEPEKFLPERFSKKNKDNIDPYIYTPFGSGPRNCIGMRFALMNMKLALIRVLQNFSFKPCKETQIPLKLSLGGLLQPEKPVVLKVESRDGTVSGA

HepaRG [2] = assay: Hepatotoxicity in human HepaRG cells assessed as GSH depletion at 1000 uM after 12 hrs by ThiolTracker Violet dye-based fluorescence assay; type: toxicity, cell-based
HepaRG [3] = assay: Hepatotoxicity in human HepaRG cells assessed as necrotic cell death at 1000 uM measured over 12 hrs by LDH assay; type: toxicity, cell-based
HepaRG [4] = assay: Hepatotoxicity in human HepaRG cells assessed as necrotic cell death at 500 uM measured over 12 hrs by LDH assay; type: toxicity, cell-based
HepaRG [5] = assay: Hepatotoxicity in human HepaRG cells assessed as GSH depletion at 500 uM after 3 to 12 hrs by ThiolTracker Violet dye-based fluorescence assay; type: toxicity, cell-based
Mus musculus = assay: Antipyretic activity in LPS-induced CD1 mouse fever model assessed as effect on rectal temperature at 50 ug/kg, po administered as single dose and measured every 2 hrs up to 24 hrs; type: functional, organism-based

O=C(CN1C(=O)c2ccccc2S1(=O)=O)Nc1ccc(O)cc1
Activity (HepaRG [1]): Toxic
inhibition (INH) (Cytochrome P450 2D6): Not Active
inhibition (INH) (Cytochrome P450 2E1): Not Active
inhibition (INH) (Cytochrome P450 3A4): Not Active
Activity (HepaRG [2]): Non-Toxic
Activity (HepaRG [3]): Toxic
Activity (HepaRG [4]): Non-Toxic
Activity (HepaRG [5]): Toxic

O=C(CN1C(=O)c2ccccc2S1(=O)=O)Nc1ccc(OC(=O)CCCO[N+](=O)[O-])cc1
Activity (HepaRG [1]): Non-Toxic
Activity (Mus musculus): Active
inhibition (INH) (Cytochrome P450 2D6): Not Active
inhibition (INH) (Cytochrome P450 2E1): Not Active
inhibition (INH) (Cytochrome P450 3A4): Not Active
Activity (HepaRG [2]): Non-Toxic
Activity (HepaRG [4]): Toxic
Activity (HepaRG [5]): Non-Toxic

O=C(CN1C(=O)c2ccccc2S1(=O)=O)Nc1ccc(OC(=O)CCO[N+](=O)[O-])cc1
Activity (HepaRG [1]): Non-Toxic
Activity (Mus musculus): inactive
inhibition (INH) (Cytochrome P450 2D6): Not Active
inhibition (INH) (Cytochrome P450 2E1): Not Active
inhibition (INH) (Cytochrome P450 3A4): Not Active
Activity (HepaRG [2]): Non-Toxic
Activity (HepaRG [3]): Non-Toxic
Activity (HepaRG [4]): Non-Toxic
Activity (HepaRG [5]): Non-Toxic

CC(=O)Nc1ccc(O)cc1 [ACETAMINOPHEN]
Activity (HepaRG [1]): Toxic
Activity (Mus musculus): Active
inhibition (INH) (Cytochrome P450 2E1): Active
inhibition (INH) (Cytochrome P450 3A4): Active
Activity (HepaRG [2]): Toxic
Activity (HepaRG [3]): Toxic
Activity (HepaRG [4]): Toxic
Activity (HepaRG [5]): Toxic

Reference: ChEMBL document CHEMBL4257568, “Synthesis, hepatotoxic evaluation and antipyretic activity of nitrate ester analogs of the acetaminophen derivative SCP-1” (Bioorg Med Chem Lett, 2018)
